This is an account of results in paper PMC6133997, “Glutamic acid is a carrier for hydrazine during the biosyntheses of fosfazinomycin and kinamycin” (Nature Communications, 2018).

The subject of assay [1] is FzmA. The settings on record: 21 µM enzyme, 5 mM substrate, 5 mM arginine, 6 mM MgCl2, 6 mM ATP, 50 mM NaH2PO4 pH 7.7, 21 h; hydrolysis to glutamic acid.
Assay [2] deals with T1, KinL (Streptomyces murayamaensis, UniProt A0A385LSP3).
T1 construct: pET28a in live E. coli BL21(DE3), not purified
T1 sequence (A0A385LSP3 1-500): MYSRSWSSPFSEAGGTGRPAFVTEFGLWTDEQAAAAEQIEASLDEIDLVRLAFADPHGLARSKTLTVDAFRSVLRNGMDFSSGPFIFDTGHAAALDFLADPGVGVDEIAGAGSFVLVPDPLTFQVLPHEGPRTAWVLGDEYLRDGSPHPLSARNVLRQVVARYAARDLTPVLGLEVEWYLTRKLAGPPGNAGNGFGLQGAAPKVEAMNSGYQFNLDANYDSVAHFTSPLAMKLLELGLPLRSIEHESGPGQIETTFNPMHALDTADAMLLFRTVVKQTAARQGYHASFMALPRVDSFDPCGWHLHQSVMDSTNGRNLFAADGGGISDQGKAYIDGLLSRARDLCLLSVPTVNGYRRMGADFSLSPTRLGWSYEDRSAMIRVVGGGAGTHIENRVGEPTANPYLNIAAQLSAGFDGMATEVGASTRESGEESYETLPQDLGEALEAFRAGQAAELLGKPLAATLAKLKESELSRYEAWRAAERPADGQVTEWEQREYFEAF
Nature of the assay: LC-HRMS of culture supernatant of E. coli expressing KinL. It is filed as cell-based. The settings on record: 1 mM acetylhydrazine, 1 mM glutamic acid, 15 °C overnight; empty-vector control.

FzmA, sequence (U5YQM4 entry or part of it): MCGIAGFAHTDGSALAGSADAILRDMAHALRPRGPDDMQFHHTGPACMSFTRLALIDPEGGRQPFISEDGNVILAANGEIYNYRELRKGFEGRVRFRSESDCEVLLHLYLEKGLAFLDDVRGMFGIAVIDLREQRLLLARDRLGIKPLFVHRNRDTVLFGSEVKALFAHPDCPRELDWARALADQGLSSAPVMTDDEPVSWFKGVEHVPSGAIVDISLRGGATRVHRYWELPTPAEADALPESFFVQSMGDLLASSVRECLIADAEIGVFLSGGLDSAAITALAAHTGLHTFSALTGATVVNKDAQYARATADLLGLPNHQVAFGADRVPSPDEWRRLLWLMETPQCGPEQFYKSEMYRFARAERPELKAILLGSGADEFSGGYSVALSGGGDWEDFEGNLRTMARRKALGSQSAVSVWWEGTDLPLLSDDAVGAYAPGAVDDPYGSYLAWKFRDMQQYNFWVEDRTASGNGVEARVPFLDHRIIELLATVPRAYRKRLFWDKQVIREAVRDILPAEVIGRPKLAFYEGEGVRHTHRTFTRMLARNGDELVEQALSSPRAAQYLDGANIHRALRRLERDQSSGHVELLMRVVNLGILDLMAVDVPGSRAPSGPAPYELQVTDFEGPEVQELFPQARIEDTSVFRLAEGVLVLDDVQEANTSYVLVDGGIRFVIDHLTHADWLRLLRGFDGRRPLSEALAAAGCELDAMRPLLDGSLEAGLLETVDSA

With `NNC(=O)CC[C@H](N)C(=O)O` [compound 6, glutamylhydrazine], the “LC-MS after Fmoc-Cl derivatization” value in assay [1] is recorded as “FzmA clearly has the ability to liberate hydrazine from glutamylhydrazine”.

For `CC(=O)NN` [acetylhydrazine], the “LC-HRMS of culture supernatant of E. coli expressing KinL” value in assay [2] is “observed in culture supernatants only when KinL was expressed and acetylhydrazine was present”.
